Read-outs that look alike come from different tables or passages of the source.
Legend:
CD38^− cells = assay: Uptake of extracellularly added dinucleotides in CD38- cells; type: in vitro ADME, human; details: 15 μM added extracellularly
K562 = assay: MTT reduction proliferation assay, K562; type: cell-based, human; details: K562 proerythroblastic leukemia, 24 hours
Experimental: (§1) The effect of P18 and P24 on the proliferation of several cell lines was determined by the MTT reduction assay (Mosmann, T. (1983) J. Immunol. Methods 65, 55-63). Briefly, cells were seeded at a concentration of 3×10^4/well in flat-bottomed 96-well plates and grown in complete medium in the presence of various concentrations (ranging between 20 and 0.4 μM) of purified dinucleotides. After 24 hours, 10 μl of a 5 mg/ml solution of MTT were added to each well and the plates incubated for a further 2 hours. The supernatant was then removed from each well and the blue crystals produced by the reduction of the dye were dissolved in DMSO (200 μl/well). The optical absorbance at 570 nm was determined with a BioRad microplate reader.
(§2) In these experiments, cells were seeded onto 96 well plates (3×10^4 cells per well) and incubated in the presence of increasing concentrations of P18 or P24. After 24 hours, the percentage of viable cells was evaluated by spectrophotometric measurement of the concentration of reduced MTT (see Materials and Methods). The means of at least three separate experiments are shown (s.d.≦20% of the mean value). […]

CD38^+ HeLa = assay: MTT reduction proliferation assay, CD38+ HeLa; type: cell-based, human; details: 24 hours
Experimental: as §1, with “Briefly, cells were seeded at a concentration of 3×10^4/well in flat-bottomed 96-well plates and grown in complete medium in the presence of various concentrations (ranging between 20 and 0.4 μM) of purified dinucleotides.” left out
as §2, with “value). The production of P18 and P24 by human CD38 cyclase, with inhibitory effects on colony growth, together with cADPR, with stimulatory effect, may be at least partly responsible for the colony growth inhibition observed during long term culture of human HP cells on CD38^+ stroma.” for “value).”

[1] = tested on: HeLa-CD38^+ (whole cells); assay: Hydrolysis by CD38+ HeLa whole cells
Experimental: ADP-ribosyl cyclases from lower and higher Metazoa were incubated in the presence of 0.1 mM cADPR and 1 mM adenine at pH 7.4 in 10 mM Tris-HCl (A, B and C) or in PBS-glucose (D) at 22° C. (A and B) or at 37° C. (C and D) for 4 hours. Aliquots of the various incubations were deproteinised with TCA (trichloroacetic acid) and subjected to HPLC (analytical phosphate). Chromatograms representative of each incubation are shown. A. A. polypoides; B. A. californica; C. Human CD38 (recombinant); D. Human HeLa cells transfected with sense and antisense human CD38 (dashed chromatogram).
In table 1, the absolute values of the peak-forming and -hydrolysing activities are compared with the cADPR-forming and -hydrolysing activities for each enzyme. The activities are expressed as nmol/min/mg.

HCT-8 = assay: MTT reduction proliferation assay, HCT-8; type: cell-based, human; details: HCT-8 colon carcinoma, 24 hours
Experimental: as §1, with “Briefly, cells were seeded at a concentration of 3×10^4/well in flat-bottomed 96-well plates and grown in complete medium in the presence of various concentrations (ranging between 20 and 0.4 μM) of purified dinucleotides.” left out
as §2, with “value). The production of P18 and P24 by human CD38 cyclase, with inhibitory effects on colony growth, together with cADPR, with stimulatory effect, may be at least partly responsible for the colony growth inhibition observed during long term culture of human HP cells on CD38^+ stroma.” for “value).”

HL60 = assay: MTT reduction proliferation assay, HL60; type: cell-based, human; details: HL60 promyelocytic leukemia, 24 hours
Experimental: as §1, §2

CD38^+ HeLa cells = assay: Intracellular calcium assay (FURA 2-AM), CD38+ HeLa; type: cell-based, human; details: 10 μM for 18 hours; for tapsigargine-induced release of calcium from ER stores [Ca^2+]i: 1 μM tapsigargine
Experimental: Adherent CD38^+ and CD38^− human HeLa cells on 20 mm-diameter coverslips were incubated in complete medium in the presence of […] P18 or P24 for […]. The cells were then washed, incubated with 6 μM Fura 2-acetoxymethyl ester (FURA 2-AM) in standard saline (135 mM NaCl, 5.4 mM KCl, 1.8 mM CaCl2, 1 mM MgCl2, 5 mM Hepes, 10 mM glucose, pH 7.4) for 45 minutes at 37° C. and then washed several times with saline. Calcium measurements were performed in a 200-μl chamber mounted on an inverted microscope, as described in detail in Zocchi E., et al. (1998) J. Biol. Chem. 273, 8017-8024. After determination of basal [Ca^2+]i levels, 1 μM tapsigargine was added to induce the release of calcium from tapsigargine-sensitive stores ([…]). The parameter values needed for calibration were obtained at the end of the experimental measurements, as described in Zocchi E., et al. (1998) J. Biol. Chem. 273, 8017-8024.
Basal cytosolic calcium and tapsigargine-induced release of calcium from […] (ER) stores (in bold in Table 4) were measured in CD38^+ and CD38^− HeLa cells loaded with FURA 2-AM and incubated in the absence (control) or in the presence of P18 or P24 at a concentration of 10 μM for 18 hours. The results obtained, expressed as [Ca^2+]I nanomolarity, are summarised in Table 4, showing mean results from 8 separate experiments (s.d.≦15% of the mean value).

Acid hydrolysis = type: physicochemical; details: yielding adenine and ADPR

| hydrolysis activity [1] | SMILES | rate of increase of intracellular concentration (uptake) (CD38^− cells) | IC50 (K562) | IC50 (CD38^+ HeLa) | IC50 (HCT-8) | IC50 (HL60) | ER stores-calcium, % of the control (CD38^+ HeLa cells) | basal [Ca^2+]i, % of the control (CD38^+ HeLa cells) | basal cytosolic free calcium [Ca^2+]i (CD38^+ HeLa cells) | tapsigargine-induced release of calcium from ER stores [Ca^2+]i (CD38^+ HeLa cells) | sensitivity to acid hydrolysis (Acid hydrolysis) | hydrolysis activity ([1]; HeLa-CD38^+ whole cells, P18 and P24 to adenine and ADPR) |
| --- | --- | --- | --- | --- | --- | --- | --- | --- | --- | --- | --- | --- |
| 0.06^1 nmol/min/mg | Nc1ncn([C@@H]2O[C@H](COP(=O)(O)OP(=O)(O)OC[C@H]3O[C@@H](n4cnc5c(N)ncnc54)[C@H](O)[C@@H]3O)[C@@H](O)[C@H]2O)c2ncnc1-2 [P24] | approx. 2.4 pmol/min/mg | 5.8 µM | 9.1 µM | 27 µM | 2 µM | 80% | 154% | 57 nM | 203 nM | sensitive to acid hydrolysis |  |
|  | Nc1ncnc2c1ncn2[C@@H]1O[C@H](COP(=O)(O)OP(=O)(O)OC[C@H]2O[C@@H](n3cnc4ncnc-4c3N)[C@H](O)[C@@H]2O)[C@@H](O)[C@H]1O [P18] | approx. 2.4 pmol/min/mg | 44 µM | 120 µM | 65 µM | 26 µM | 48% | 41% | 16 nM | 123 nM | sensitive to acid hydrolysis | 0.24^1 nmol/min/mg |

— patent publication US7868163B2, “Adenyl dinucleotides with antitumour activity and a method of preparing thereof” (Universita' Degli Studi Di Genova, priority 2005, dated 2011)
